Read-outs that look alike come from different tables or passages of the source.
Key:
[1] = tested on: G-quadruplex (G4) DNA structure; assay: G4 DNA structure formation (G4 IHC staining, G4-antibody ChIP-seq) in fibroblasts; assay type: cell-based, human; conditions: for G4 level / G4 DNA structure formation: 4 hours; for G4 DNA structure formation: cells with high ROS levels
Protocol: G4 and 8-oxoguanosine Immunostaining. Cells were fixed in 3.7% formaldehyde for 20 minutes at room temperature and washed with phosphate buffered saline (PBS). Samples were then permeabilized with 0.1 Triton X-100 in PBS for 20 minutes and blocked for 1 hour with 3% bovine serum albumin (BSA) in PBS-T, followed by incubation with primary antibodies for 2 hours at room temperature or overnight at 4° C. Anti-DNA G-quadruplex (G4) Antibody, clone 1H6 (MABE1126, EMD Millipore, Burlington, Mass.) was used for the detection of DNA G-quadruplex and ANTI-8 HYDROXYGUANOSINE AB (N45.1) AB48508 from Abcam (Cambridge, United Kingdom). Primary antibodies were used at a 1:250 dilution and 1:50 respectively. Alexa 568-conjugated goat anti-mouse IgM (A-21124) was from Molecular Probes (Eugene, Oreg.). Secondary antibodies were used at a 1:1000 dilution. The nuclei were stained with 4′,6-diamidino-2-phenylindole (DAPI, Sigma, St. Louis, Mo.). Image quantification was performed with Image J (NIH, Bethesda, Md.), quantifying mean fluorescence intensity in the nuclear regions.
GSH and BSO Treatment, Time-Course Experiment. High ROS fibroblasts were treated by adding glutathione reduced ethyl ester (3 mM, GEE; Gold Biotechnology Inc., St. Louis, Mo.) to the media. Treated High ROS fibroblasts were then fixed and processed for staining at multiple timepoints. Low ROS fibroblasts were treated with L-Buthionine-sulfoximine (500 μM, BSO; Sigma, St. Louis, Mo.) to the media. Treated Low ROS fibroblasts were then fixed and processed for staining at multiple timepoints.
CHIP-SEQ for G4 Structures. Chromatin immunoprecipitation (ChIP) was performed according to the published protocol (see Carey, M. F., et al., Chromatin Immunoprecipitation (ChIP), COLD SPRING HARB PROTOC (CSH Press) (2009)). Anti-DNA G-quadruplex (G4) Antibody, clone 1H6 (MABE1126, EMD Millipore, Burlington, Mass.) was used for the detection of DNA G-quadruplex.

[2] = tested on: pATM; assay: Immunoblot of pATM after phleomycin treatment in BSO-A-iPSC; assay type: cell-based; conditions: 0.5 mM from end of reprogramming day 5, ten independent clones of A-iPSC
Protocol: Immunoblot analysis. […] Secondary antibodies were from Cell Signaling (1:10,000).
BSO treatment. BSO-A-iPSC were generated in the presence of 500 μM of L-Buthionine-sulfoximine (BSO, Sigma, B2515) starting on the end of reprogramming day 5. The treatment was kept throughout the end of reprogramming process and after picking the colonies.
BSO-A-iPSC were generated in the presence of 500 μM of L-Buthionine-sulfoximine (BSO, Sigma B2515) starting on the end of reprogramming day 5 as previously described (see, e.g., Ji, et al. Experimental & Molecular Medicine 42:175-186 (2010)).

[3] = tested on: mouse A-iPSC; assay: DNA damage response in mouse A-iPSC treated with GSS inhibitor; assay type: cell-based; conditions: treatment of mouse A-iPSC; data not shown
Excerpt: A-iPSC have excessive levels of glutathione (FIG. 3D) and elevated ROS scavenging activity (FIG. 3E) relative to Y-iPSC or ESC. While ROS levels in A-iPSC were increased by treatment with DNA damaging agents (FIG. 3E) and this might be sufficient to cause direct DNA damage and genomic instability, improper scavenging of ROS by excess glutathione would limit the ROS cellular stress signal needed to induce the DNA damage response, which would in turn reduce apoptosis and increase A-iPSC exposure to additional genotoxic stress, allowing accumulation of mutations and other genomic alterations. Upon ZSCAN10 expression, glutathione and ROS scavenging activity were normalized to levels equivalent to those seen in Y-iPSC and ESC (FIG. 3D, 3E). In addition, shRNA knockdown of GSS in reprogrammed A-iPSC (data not shown) decreased glutathione levels and ROS scavenging activity (data not shown), increased apoptosis (FIG. 3F), and recovered the DNA damage response (FIG. 3G). The DNA damage response was also recovered by treatment of A-iPSC with the GSS pharmacological inhibitor, L-Buthionine-sulfoximine (BSO) (data not shown). Conversely, overexpression of GSS in Y-iPSC (data not shown) increased glutathione and ROS scavenging activity (data not shown), decreased apoptosis (FIG. 3F), and blunted the DNA damage response (FIG. 311).

[4] = tested on: somatic cells; assay: Modification of cellular ROS levels in high-ROS / low-ROS somatic cells; assay type: cell-based, human; conditions: 4 hours
[5] = tested on: human AG4 fibroblasts; conditions: AG4-GSH vs AG4 control, 100,000 cells each, iPSC colonies counted at day 21
Protocol: (§1) For the generation of human A-iPSC, 10^5 skin fibroblasts such as young somatic cells (Y-SC) from MRCS and aged somatic cells (A-SC) from LS and AG4 donors aged 80 to 100 years were infected with retrovirus generated from the tetracistronic SFG-SV2 vector encoding for hOCT4, hSOX2, hKLF4, and hMYC in 6-well dishes with 0.5 mL of each viral supernatant (total 2 mL per well); and spun at 2500 rpm at RT for 90 min (BenchTop Centrifuge, BeckmanCoulter, Allegra-6R). The cells were contacted with 3 mM glutathione reduced ethyl ester prior to and during the early stage of reprogramming (from one day before reprogramming virus infection to 10 days post reprogramming virus infection).

[6] = tested on: pATM; conditions: A-hiPSC from AG4 fibroblasts, 3 mM from one day before to 10 days post reprogramming virus infection, phleomycin 2 h, 30 μg/mL, vs untreated A-hiPSC
Protocol: as §1

[7] = tested on: human A-iPSC
Protocol: as §1
Copy number profiling analysis. Copy number profiling analysis was performed according to a published protocol (Baslan et al., Genome Research 25:1-11 (2015)).

[8] = tested on: GSS; conditions: A-iPSC generated with 3 mM treatment; vs untreated A-iPSC
Protocol: (§2) Quantitative real time-PCT (Q-PCR) analysis. The expression levels of genes (ZSCAN10, GSS) were quantified by Q-PCR with Power SYBR Green PCR mastermix (Applied Biosystems). Total RNAs (1 μg) were reverse-transcribed in a volume of 20 μL using the M-MuLV Reverse Transcriptase system (New England Biolabs), and the resulting cDNA was diluted into a total volume of 200 μL. 10 μL of this synthesized cDNA solution was used for analysis. For pluripotent genes, each reaction was performed in a 25-μL volume using the Power SYBR Green PCR mastermix (Applied Biosystems). The conditions were programmed as follows: initial denaturation at 95° C. for 10 min followed by 40 cycles of 30 sec at 95° C., 1 min at 55° C., and 1 min at 72° C.; then 1 min at 95° C., 30 s at 55° C., and 30 sec at 95° C. All of the samples were duplicated, and the PCR reaction was performed using an Mx3005 reader (Stratagene), which can detect the amount of synthesized signals during each PCR cycle. The relative amounts of the mRNAs were determined using the MxPro program (Strategene). The amount of PCR product was normalized to the percentage of the expression level of β-actin.

[9] = tested on: ZSCAN10; conditions: A-iPSC generated with 3 mM treatment; vs untreated A-iPSC
Protocol: as §2

[10] = tested on: A-SC from AG4 donor; conditions: 3 mM for three days in the media
Excerpt: Reactive oxygen species (ROS) analysis. The production of superoxide by mitochondria can be visualized in fluorescence microscopy using the MitoSOX™ Red reagent (M36008, Thermofisher scientific). MitoSOX™ Red reagent permeates live cells where it selectively targets mitochondria. It is rapidly oxidized by superoxide but not by other reactive oxygen species (ROS) and reactive nitrogen species (RNS). The oxidized product is highly fluorescent upon binding to nucleic acid. Fluorescence microscopy was used to visualize the fluorescence and imaging software (Image J) was used to quantify the staining of the different cell lines.
MitoSOX RED Staining. MitoSOX Red staining (MitoSOX™ Red mitochondrial superoxide indicator *for live-cell Imaging, M36008, ThermoFisher Scientific, Waltham, Mass.) was performed according to Molecular Probes/Thermo Scientific protocol. Briefly, the MitoSOX™ reagent stock solution (5 mM, prepared in HBSS/Ca/Mg or suitable buffer) was diluted to make a 5 μM MitoSOX™ reagent working solution. 1.0-2.0 mL of the 5 μM MitoSOX™ reagent working solution was applied to cover cells adhering to coverslip(s). Cells were incubated for 10 minutes at 37° C., protected from light. Cells were washed before imaging.

## CCCCS(=N)(=O)CCC(N)C(=O)O [BSO, L-Buthionine-sulfoximine]
[1]; 0.5 mM, low-ROS somatic cells
  G4 level: increases
[1]; low ROS fibroblasts, 500 μM, time-course (FIG. 14B)
  G4 IHC staining of fibroblasts: higher G4 IHC staining
[2]
  DNA damage response (pATM immunoblot): recovery of the DNA damage response
[3]
  DNA damage response: recovered
[4]; 0.5 mM, low-ROS somatic cells
  cellular ROS level: increases

## N[C@@H](CCC(=O)N[C@@H](CS)C(=O)NCC(=O)O)C(=O)O [glutathione reduced ethyl ester]
[5]
  increase of reprogramming efficiency: approximately 10 fold
[6]
  DNA damage response (pATM immunoblot): protects the DNA damage response
[6]; listed as glutathione
  DNA damage response (pATM immunoblot): impairs the DNA damage response
[7]; A-hiPSC from AG4 fibroblasts, 3 mM prior to and during first 10 days of reprogramming, vs untreated A-hiPSC
  genomic stability (copy number profiling): maintains genomic stability
[7]; human A-iPSC with glutathione treatment, 10 clones, untreated A-hiPSC 7/11
  detected rearrangements per number of clones (copy number profiling): 0/10
[8]
  GSS levels in the A-iPSC (Q-PCR): reduced
[9]
  ZSCAN10 levels in the A-iPSC (Q-PCR): elevated
[1]; 3 mM
  G4 DNA structure formation: reduces G4 DNA structure formation
[1]; 3 mM, listed as GEE
  G4 DNA structure formation: decreases
[1]; high ROS fibroblasts, 3 mM, time-course (FIG. 14A)
  G4 IHC staining of fibroblasts: lower G4 IHC staining
[4]; 3 mM, high-ROS somatic cells
  cellular ROS level: decreases
[10]
  cellular ROS level (MitoSOX staining): reduces the cellular ROS level

## NCCOc1cc(C(=O)Nc2cc(OCCN)c3ccccc3n2)nc(C(=O)Nc2cc(OCCN)c3ccccc3n2)c1 [pyridostatin]
[1]; 10 μM, somatic cells
  G4 level: increases G4

— US20210147814A1, “METHODS FOR GENERATING PLURIPOTENT STEM CELLS” (Memorial Sloan Kettering Cancer Center, priority 2017, published 2021)
